Assay results: publication PMC6468809, “Structural Analysis of the 42 kDa Parvulin of Trypanosoma brucei” (Biomolecules, 2019)
*1 amine or outer side, *2 acyl side, *3 side chain or, on linkers, in order; H or OH if unused. Where a SMILES comes first, the peptide text is derived from it. [ ]: non-standard residue; d: D form. pT = C[C@@H](OP(=O)(O)O)[C@H](N)C(=O)O; Suc = O=C(CCC(=O)[*:2])[*:1]

Legend:
[1] = test system: hPin1; test: EXSY experiment, cis/trans isomerisation of peptide; format: biochemical, human; conditions: 2.4 mM peptide, 50 μM hPin-PPIase, 25 mM potassium phosphate pH 6.26, 100% D2O, 27 °C, mixing time 400 ms
[2] = test system: TbPar42-PPIase; test: as above; format: biochemical, Trypanosoma brucei; conditions: 2.4 mM peptide, 50 μM TbPar42-PPIase, 25 mM potassium phosphate pH 6.26, 100% D2O, 27 °C, mixing time 400 ms
[3] = molecular target: TbPar42-PPIase (264-383) (Trypanosoma brucei brucei, UniProt Q57XM6); test: biochemical
[4] = molecular target: TbPar42 NterFHA (1-177) (Trypanosoma brucei brucei, UniProt Q57XM6); test: biochemical
TbPar42 NterFHA (1-177), sequence (Q57XM6 1-177): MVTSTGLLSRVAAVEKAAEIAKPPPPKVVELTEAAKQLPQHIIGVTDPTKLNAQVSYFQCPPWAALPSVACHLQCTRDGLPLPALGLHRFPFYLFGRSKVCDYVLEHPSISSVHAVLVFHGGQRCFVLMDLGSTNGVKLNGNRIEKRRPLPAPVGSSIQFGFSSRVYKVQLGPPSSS
Method: After each step a ^1H-^15N-HSQC or SOFAST spectrum was recorded on a 700 MHz Ultrashield NMR spectrometer at 27 °C. The spectra were analyzed with the CcpNmr Analysis software, and the chemical shift perturbations were calculated with following equation [22]: Δδtotal=(ΔδH)^2+(0.154·ΔδN)²
Residues with chemical shifts ≥0.015 ppm (PPIase) or ≥0.04 ppm (NterFHA) were represented on the related protein structure using PyMOL [23]. For titrations of the peptide Ala-Glu-Ala-pThr-Glu-Ala-Xaa (Xaa representing Asp, Ile, Val, Ser, or Gln) to the NterFHA domain, the protein concentration was 250 µM and the peptides were titrated to a final concentration of 8 mM.

TbPar42-PPIase (264-383), sequence (Q57XM6 264-383): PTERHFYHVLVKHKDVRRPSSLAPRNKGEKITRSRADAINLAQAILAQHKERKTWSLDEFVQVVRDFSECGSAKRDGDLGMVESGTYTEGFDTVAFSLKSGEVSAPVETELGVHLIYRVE

C[C@H](NC(=O)[C@@H]1CCCN1C(=O)[C@@H](NC(=O)[C@H](C)NC(=O)CCC(=O)O)[C@@H](C)OP(=O)(O)O)C(N)=O [Suc-Ala-pThr-Pro-Ala-NH2] (Suc-A[pT]PA-NH2)
cis/trans exchange peaks of the peptide (EXSY) [1]: exchange peaks generated exclusively in B | isomerase activity on the peptide [2]: no isomerase activity could be detected | Kd [3]: ~10 mM | Kd [4]: ~4 mM
